Assay results reported in US8778970B2, “Benzyl piperidine compound” (Dainippon Sumitomo Pharma Co., Ltd, priority 2009, dated 2014).

Assays:
[1] = target: T1, CYP2D6 (Homo sapiens (Human), UniProt P10635); test: CYP2D6 inhibition screening test (bufuralol 1'-hydroxylation, pooled human liver microsomes); format: in vitro ADME; conditions: substrate bufuralol, 37° C. 10 min
Method: CYP2D6 Inhibition Screening Test
Bufuralol hydrochloride was purchased from Toronto Research Chemicals Inc., and pooled human liver microsomes were purchased from Xenotech, LLC.
Bufuralol hydrochloride was dissolved in DMSO at a concentration of 1.0 mM and then diluted 20-fold with distilled water.
• 1. A 10 mM solution of a test drug in DMSO was serially diluted with DMSO at four 5-fold dilutions to prepare 10, 2, 0.4 and 0.08 mM DMSO solutions. • 2. Each test drug solution of step 1 or DMSO was diluted 160-fold with the human liver microsome solution and dispensed at a concentration of 80 μL/well to a microplate. • 3. 10 μL of the substrate solution and 10 μL of the β-NADPH solution were added to each well of step 2, and the mixture was incubated at 37° C. for 10 min. • 4. The reaction was terminated by the addition of 300 μL of methanol. • 5. The reaction mixture was filtered and analyzed by LC-MS/MS. 3-4 Quantification and Calculation
The amount of 1′-hydroxybufuralol formed was determined by LC-MS/MS, and this value was used as the metabolic activity value of CYP2D6 in each well. The residual activity of each sample-supplemented group was determined by comparison with the activity in the well containing DMSO used as a test drug. IC50 values in CYP2D6 inhibition were determined from the test drug concentrations. […] The larger numeric value of IC50 in CYP2D6 inhibition means weaker CYP2D6 inhibition.

[2] = target: T1, CYP2D6; test: Screening test on contribution ratio of CYP2D6 in human liver microsomal metabolism; format: in vitro ADME; conditions: 1 mg/mL human liver microsomes, 1 μM test substance, with/without 4 μM quinidine; values marked *) are reference values due to relative stability
Method: Screening Test on Contribution Ratio of CYP2D6 in Human Liver Microsomal Metabolism
0.2 mL of a 50 mM potassium phosphate buffer (pH 7.4) containing 3 mM (final concentration) NADPH (manufactured by Oriental Yeast Co., Ltd.), 1 mg/mL human liver microsomes (manufactured by Xenotech, LLC) and 1 μM test substance was warmed in a water bath at 37° C. for metabolic reaction. After 15- or 30-minute reaction, the reaction was terminated by the addition of a 3-fold volume of methanol with respect to the reaction solution and subsequent stirring. This reaction solution was centrifuged to precipitate proteins. Then, the supernatant was collected and subjected to LC-MS/MS analysis. The results were analyzed as follows:
The test substance was quantified, and time-dependent change in its residual amount was logarithmically plotted. The rate of metabolism was calculated from the slope.
The ratio of the rate of metabolism in the presence of quinidine added at 4 μM (final concentration) to the reaction solution to that in the absence of quinidine was used as the contribution ratio of enzymes other than CYP2D6. The remaining portion was used as the contribution ratio of CYP2D6. Specifically, it was calculated according to the formula: Contribution ratio (%)={1−(Rate of metabolism [in the presence of quinidine]/Rate of metabolism [in the absence of quinidine])}×100 The smaller numeric value of the contribution ratio of CYP2D6 means the small contribution of CYP2D6.

[3] = target: human serotonin 1A receptor (h-5-HT1A) (Homo sapiens (Human), UniProt P08908); test: [3H] 8-OH-DPAT binding test for affinity for human serotonin 1A receptor; conditions: h-5-HT1A/CHO membrane preparation, [3H] 8-OH-DPAT 0.5 nM; read-out: h-5-HT1A binding inhibition constant (Ki)
human serotonin 1A receptor (h-5-HT1A), sequence (P08908 whole entry): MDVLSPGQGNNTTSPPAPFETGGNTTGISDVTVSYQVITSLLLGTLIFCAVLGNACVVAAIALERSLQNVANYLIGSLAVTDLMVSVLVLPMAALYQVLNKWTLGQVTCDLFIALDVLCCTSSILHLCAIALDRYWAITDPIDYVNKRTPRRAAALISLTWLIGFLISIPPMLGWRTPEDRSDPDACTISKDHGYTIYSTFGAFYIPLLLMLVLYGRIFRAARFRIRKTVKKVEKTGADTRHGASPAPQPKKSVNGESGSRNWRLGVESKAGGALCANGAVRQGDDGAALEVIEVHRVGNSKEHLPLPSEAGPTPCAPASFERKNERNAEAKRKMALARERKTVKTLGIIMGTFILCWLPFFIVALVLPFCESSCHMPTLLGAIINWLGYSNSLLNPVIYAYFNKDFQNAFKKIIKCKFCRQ
Method: [^3H] 8-OH-DPAT Binding Test for Evaluating Affinity for Human Serotonin 1A Receptor
2-1 Cells Used and Preparation of Membrane Preparation
CHO cells expressing a human serotonin 1A receptor (h-5-HT1A) (h-5-HT1A/CHO) were used in the experiment. The cells were cultured in F12 containing 10% FCS, 500 μg/ml Geneticin and 100 U/ml penicillin-100 μg/ml streptomycin (all manufactured by Sigma-Aldrich Corp.) in a 5% CO2 incubator. Membrane preparation were prepared according to the method of Yabuuchi et al.^3). Specifically, the cells dissociated and collected therefrom using 50 mM Tris-HCl (pH=7.4) were homogenized using a Teflon® homogenizer and then centrifuged (48,000×g, 20 min, 4° C.). The precipitate was resuspended in an appropriate amount of 50 mM Tris-HCl (pH=7.4) and stored at −80° C. until use. The amount of the protein in the membrane preparation were determined using bovine serum albumin (manufactured by Sigma-Aldrich Corp.) as standards and Dye Reagent Concentrate (manufactured by Bio-Rad Laboratories, Inc.).
2-2 Receptor Binding Experiment
50 μl of [^3H] 8-OH-DPAT (final concentration: 0.5 nM), 1 μl of a test drug solution, and 149 μl of the h-5-HT1A/CHO membrane preparation (25 μg/well in terms of the amount of the protein) were added into a buffer containing 50 mM Tris-HCl (pH=7.4) and 4 mM CaCl2, and 200 μl in total of the reaction solution was used in the assay. The reaction solution was reacted at room temperature for 30 minutes and then immediately suction-filtered at a low pressure using a glass fiber filter paper. The glass fiber filter paper was washed twice with 250 μl of 50 mM Tris-HCl (pH=7.4) and then added to a counting vial containing 4 ml of ACS-II (manufactured by GE Healthcare (formerly Amersham Biosciences)). Receptor binding-derived radioactivity remaining on the filter paper was measured using a liquid scintillation counter. The nonspecific binding was defined as a binding amount in the presence of 10 μM 8-OH-DPAT.
8-OH-DPAT. Moreover, the Kd value was the binding dissociation constant of [^3H] […] The smaller numeric value of the h-5-HT1A binding inhibition constant Ki means higher affinity for human serotonin 1A receptors.

[4] = target: human serotonin transporter (h-SERT) (Homo sapiens (Human), UniProt P31645); test: [3H] citalopram binding screening test for inhibitory effect on human serotonin reuptake; conditions: h-SERT/CHO membrane preparation, [3H] citalopram approx. 2 nM; read-out: h-SERT binding inhibition constant (Ki)
human serotonin transporter (h-SERT), sequence (P31645 whole entry): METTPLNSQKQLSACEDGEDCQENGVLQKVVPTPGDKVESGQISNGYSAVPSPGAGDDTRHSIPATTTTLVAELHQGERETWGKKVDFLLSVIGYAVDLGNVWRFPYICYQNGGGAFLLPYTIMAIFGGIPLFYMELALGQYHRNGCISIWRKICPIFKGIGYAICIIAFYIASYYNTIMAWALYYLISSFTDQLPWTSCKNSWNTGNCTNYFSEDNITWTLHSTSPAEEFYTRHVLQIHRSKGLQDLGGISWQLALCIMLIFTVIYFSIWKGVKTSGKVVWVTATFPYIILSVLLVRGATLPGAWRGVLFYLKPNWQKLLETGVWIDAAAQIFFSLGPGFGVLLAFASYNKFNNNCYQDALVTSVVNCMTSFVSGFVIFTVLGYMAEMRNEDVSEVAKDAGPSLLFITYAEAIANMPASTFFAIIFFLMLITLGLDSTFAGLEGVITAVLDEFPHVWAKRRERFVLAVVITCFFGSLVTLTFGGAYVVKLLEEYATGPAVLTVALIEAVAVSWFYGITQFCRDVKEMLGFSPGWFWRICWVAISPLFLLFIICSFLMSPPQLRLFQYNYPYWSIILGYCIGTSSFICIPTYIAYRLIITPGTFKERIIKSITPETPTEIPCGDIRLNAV
Method: Screening Test Using [^3H] Citalopram Binding for Evaluating Inhibitory Effect on Human Serotonin Reuptake
1-1 Cells Used and Preparation of Membrane Preparation
CHO cells expressing a human serotonin transporter (h-SERT) (h-SERT/CHO) were used in the experiment. The cells were cultured in F12 containing 10% FCS, 500 μg/ml Geneticin and 100 U/ml penicillin-100 μg/ml streptomycin (all manufactured by Sigma-Aldrich Corp.) in a 5% CO2 incubator. The cells dissociated and collected therefrom using SERT buffer (50 mM Tris-HCl containing 120 mM NaCl and 5 mM KCl (pH=7.4)) were homogenized using a Teflon (R) homogenizer and then centrifuged (50,000×g, 30 min, 4° C.). The precipitate was resuspended in an appropriate amount of SERT buffer and stored at −80° C. until use. The amount of the protein in the membrane preparation were determined using bovine serum albumin (manufactured by Sigma-Aldrich Corp.) as standards and Dye Reagent Concentrate (manufactured by Bio-Rad Laboratories, Inc.).
1-2 Receptor Binding Experiment
[^3H] citalopram binding was assayed according to the method of Owens et al. [Owens M. J. et al., J. Pharm. […] Specifically, 50 μl of [^3H] citalopram (final concentration: approximately 2 nM) diluted with SERT buffer, 149 μl of the h-SERT/CHO membrane preparation (40 μg/well in terms of the amount of the protein), and 1 μl of a solution of a test drug dissolved in DMSO were added to prepare 200 μl in total of a solution. This solution was reacted at room temperature for 60 minutes and then immediately suction-filtered at a low pressure using a glass fiber filter paper coated with a 0.05% aqueous polyethyleneimine solution. The glass fiber filter paper was washed twice with 250 μl of SERT buffer and then transferred to a glass vial containing 4 ml of ACS-II (manufactured by GE Healthcare (formerly Amersham Biosciences)). Radioactivity remaining on the filter paper was measured using a liquid scintillation counter. The nonspecific binding of [^3H] citalopram was defined as a binding amount in the presence of 1 μM clomipramine.
The smaller numeric value of the h-SERT binding inhibition constant Ki means a higher inhibitory effect on human serotonin reuptake.

T1 sequence (P10635 whole entry): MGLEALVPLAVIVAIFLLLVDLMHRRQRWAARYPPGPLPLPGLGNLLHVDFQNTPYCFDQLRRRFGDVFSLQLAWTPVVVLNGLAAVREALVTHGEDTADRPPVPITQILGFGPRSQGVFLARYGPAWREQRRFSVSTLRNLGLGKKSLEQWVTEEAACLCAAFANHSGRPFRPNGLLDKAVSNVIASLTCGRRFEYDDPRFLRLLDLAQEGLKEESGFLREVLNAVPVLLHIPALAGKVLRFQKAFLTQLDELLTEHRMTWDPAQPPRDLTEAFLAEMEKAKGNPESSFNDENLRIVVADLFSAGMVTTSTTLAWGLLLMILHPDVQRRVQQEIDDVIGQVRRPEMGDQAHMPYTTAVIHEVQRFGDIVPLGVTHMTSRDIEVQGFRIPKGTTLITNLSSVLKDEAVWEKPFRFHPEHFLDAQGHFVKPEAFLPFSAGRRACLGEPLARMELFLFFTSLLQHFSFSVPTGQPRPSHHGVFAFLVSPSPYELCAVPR

| SMILES | IC50 [1] | CYP2D6 contribution ratio [2] | Ki [3] | Ki [4] |
| --- | --- | --- | --- | --- |
| COCCOc1cc(CC2CCN(CCc3ccc4occc(=O)c4c3)CC2)ccc1Br.Cl [Compound 5-6, 6-(2-{4-[4-Bromo-3-(2-methoxyethoxy)benzyl]piperidin-1-yl}ethyl)-4H -chromen-4-one hydrochloride] | 28300 nM | 31% | 2 nM | 0.27 nM |
| Cl.O=c1ccoc2ccc(CCN3CCC(Cc4ccc(Br)c(OCCO)c4)CC3)cc12 [Compound 5-7, 6-(2-{4-[4-Bromo-3-(2-hydroxyethoxy)benzyl]piperidin-1-yl}ethyl)-4H-chromen-4-one hydrochloride] | 34900 nM | 9.2*) % | 2.1 nM | 3.5 nM |
| O=C1CCOc2ccc(CCN3CCC(Cc4ccc(Br)c(O)c4)CC3)cc21 [Compound 5-8, 6-{2-[4-(4-Bromo-3-hydroxybenzyl)piperidin-1-yl]ethyl}-2,3-dihydro-4H-chromen-4-one] | 9900 nM | 98% | 1.3 nM | 6.5 nM |
| O=c1ccoc2ccc(CCN3CCC(Cc4ccc(Br)c(O)c4)CC3)cc12 [Compound 5-9, 6-{2-[4-(4-Bromo-3-hydroxybenzyl)piperidin-1-yl]ethyl}-4H-chromen-4-one] | 16800 nM | 46% | 0.27 nM | 1.7 nM |
| COCCOc1cc(CC2CCN(CCc3ccc4occ(O)c(=O)c4c3)CC2)ccc1Br [Compound 5-14, 6-(2-{4-[4-Bromo-3-(2-methoxyethoxy)benzyl]piperidin-1-yl}ethyl)-3-hydroxy-4H-chromen-4-one] | 37600 nM | 8% | 2.5 nM | 0.88 nM |
| Oc1cc(CC2CCN(CCc3ccc4c(c3)C(O)CCO4)CC2)ccc1Br (stereo not drawn) [Compound 5-15, 6-{2-[4-(4-Bromo-3-hydroxybenzyl)piperidin-1-yl]ethyl}-3,4-dihydro-2H-chromen-4-ol] | 40300 nM | 0*) % | 8.5 nM | 41 nM |
